According to patent US7820795B2, “Lactobacillus fermentum N-desoxyribosyl transferases and the use thereof for enzymatic synthesis of 2′, 3′—didesoxynucleosides and 2′,3′- didehydro-2′,3′- didesoxynucleosides” (Institut Pasteur, priority 2004, dated 2010):

Legend:
[1] = molecular target: T1, Lactobacillus fermentum N-deoxyribosyl transferase (NTD, LF), native/wild type, SEQ ID No. 2 (Limosilactobacillus fermentum, UniProt Q6YNI5); assay: Enzymatic activity tests (dT+C, ddT+C and d4T+C reactions), native enzyme LF; assay type: biochemical; conditions: deoxyribosyl donor + C (cytosine)
T1 construct: crude extract or purified
T1 sequence (Q6YNI5 1-168): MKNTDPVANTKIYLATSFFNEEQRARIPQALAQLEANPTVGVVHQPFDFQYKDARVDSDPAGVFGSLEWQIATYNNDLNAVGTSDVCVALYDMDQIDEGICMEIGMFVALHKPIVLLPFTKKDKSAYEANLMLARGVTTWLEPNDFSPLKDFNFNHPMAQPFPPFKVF
Protocol: 50 μl of enzymatic extract is added to 200 μl of 100 mM citrate buffer, pH 6.44, in the presence of 3 mM ddU or dU final and of 1 mM C final for the strain PAK9, the whole is incubated at 37° C. The progress of the reaction is monitored by TLC (silica; eluent: MeOH—CH2Cl2 (20/80)). […] The disappearance of the substrates and the formation of the products were also quantified by HPLC analysis. The different products are separated by analytical HPLC with a reversed-phase column (100-5C18) using a flow rate of 1 ml/min and a linear gradient of 5-25% CH3CN in a 10 mM triethyl ammonium acetate buffer at pH 7.5 for 20 minutes.
were used as primer in an amplification reaction under standard conditions using the ntd gene of L. fermentum cloned in pSU19 (pLF6) as DNA matrix. The amplification product was digested by the restriction enzymes Nde1 and BamH1 for 2 hours at 37° C., purified on agarose gel and inserted into the plasmid pET24a digested by the same enzymes then the ligation mixture is used to transform the strain β 2033. The plasmid DNA from the colonies was prepared and digested by the enzymes Nde1 and BamH1. […]
(§1) The cells are then centrifuged for 15′ at 4000 rpm at 4° C., washed in 50 ml of phosphate buffer then the pellet obtained after centrifugation is preserved overnight at −20° C. […] The fractions are then analyzed by SDS-PAGE gel and the enzymatic activity determined. […] The protein concentration is determined by measuring the OD at 280 nm. […]
The enzymatic activities of the native and mutant N-deoxyribosyl transferases of L. leichmannii (LL and LL G9S) and of L. fermentum (LF and LFA15T) in the exchange reactions dT+C ? dC+T, ddT+C ? ddC+T and d4T+C ? d4C+T were evaluated starting from crude extracts or purified proteins.
These different values were measured according to the protocol described in the literature [P A Kaminski (2002) “Functional cloning, heterologous expression and purification of two different N-deoxyribosyl transferases from Lactobacillus helveticus” J. Biol. Chem; vol. […]

[2] = system: HIV (human immunodeficiency virus); conditions: cited from earlier work
[3] = molecular target: T2, Lactobacillus fermentum N-deoxyribosyl transferase (NTD) variant LFA15T, mutation A15T, SEQ ID No. 4 (Limosilactobacillus fermentum, UniProt Q6YNI5, A15T); assay: Enzymatic activity tests (dT+C, ddT+C and d4T+C reactions), mutated enzyme LFA15T; assay type: biochemical; conditions: mutant LFA15T; deoxyribosyl donor + C (cytosine)
T2 construct: crude extract or purified
T2 sequence (Q6YNI5 1-168 A15T): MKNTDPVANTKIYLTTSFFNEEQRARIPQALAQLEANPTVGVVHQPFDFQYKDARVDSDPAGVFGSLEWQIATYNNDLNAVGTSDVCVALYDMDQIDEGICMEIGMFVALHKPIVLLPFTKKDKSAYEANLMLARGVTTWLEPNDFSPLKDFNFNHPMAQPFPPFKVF
Protocol: The sequencing of the plasmids present in the selected transformants of PAK 9 made it possible to identify a mutation in the sequence (ntd) having the effect of substituting a residue T for the residue A in position 15 in the corresponding protein sequence (SEQ ID No. 2) (mutation called A15T).
50 μl of enzymatic extract is added to 200 μl of 100 mM citrate buffer, pH 6.44, in the presence of 3 mM ddU or dU final and of 1 mM C final for the strain PAK9, the whole is incubated at 37° C. The progress of the reaction is monitored by TLC (silica; eluent: MeOH—CH2Cl2 (20/80)). […] The disappearance of the substrates and the formation of the products were also quantified by HPLC analysis. […]
as §1
The enzymatic activities of the native and mutant N-deoxyribosyl transferases of L. leichmannii (LL and LL G9S) and of L. fermentum (LF and LFA15T) in the exchange reactions dT+C ? dC+T, ddT+C ? ddC+T and d4T+C ? d4C+T were evaluated starting from crude extracts or purified proteins. […]

| SMILES | Kcat [1] | inhibition of replication of HIV [2] | Kcat [3] |
| --- | --- | --- | --- |
| Cc1cn([C@H]2C=C[C@@H](CO)O2)c(=O)[nH]c1=O [d4T, reference compound] | 0.56 µmol/s/µg | – | – |
| Nc1ncnc2c1ncn2[C@H]1CC[C@@H](CO)O1 [ddA, 2′,3′-dideoxyadenosine] | – | effectively inhibit the replication of HIV | – |
| Cc1cn([C@H]2C[C@H](O)[C@@H](CO)O2)c(=O)[nH]c1=O [dT] | 0.665 µmol/s/µg | – | 0.242 µmol/s/µg |
